Data from patent publication US6346543B1, “Use of a taxoid to treat abnormal cell proliferation in the brain” (priority 1998, dated 2002).
“And” between values parts separate entries of the source, which are not always exact repeats. Equal values may be shown once.

Legend:
[1] = tested on: intracranially implanted human glioblastoma SF-295; test: Antitumor activity against intracranially implanted SF-295 glioblastoma in NCr-nu mice (RP-38); format: in vivo; details: for DAYS OF DEATH: individual animals
Description: Four studies were initiated to evaluate the response of U251 and SF-295 glioblastomas to treatment with product (Ia). In the two studies, U251 and SF-295 glioblastomas were initiated from intracranially implanted cells at a volume of 10^6 cells per mouse. The treatment schedule of the intracranially implanted U251 glioblastoma cells was iv, once daily, every sixth day for three treatments (q6d×3), beginning on day four post-implant. The treatment schedule of the intracranially implanted SF-295 glioblastoma cells was iv, once daily, every fourth day for three treatments (q4d×3), beginning on day two post-implant. For the intracranially implanted studies, the compounds were evaluated based on their ability to increase the life span of the animals. The positive control used for both of these tumor models was nitrosourea.
In these experiments, general DCTD, NCI techniques and procedures for in vivo efficacy studies were modified for special application (In Vivo Cancer Models, NIH Publication No. 84-2635, 1984). These studies were conducted in approved facilities (AAALAC Registration No. 000643, AALAS Membership No. 840723001, USDA Registration No. 64-R-001, OPPR, PHS, NIH, AWA, Assurance No. A3046-01). These facilities are ISO 9001 certified. The oversight committee was the Southern Research Institutional Animal Care and Use Committee; the protocol used was IACUC No. 96-8-50.
(§1) Product (Ia) was prepared in 5% ethanol, 5% tween 80, 90% D5W
Nitrosourea was prepared in 2% ethanol, 98% physiological saline.
(§2) Product (Ia) was administered in 0.4 ml/mouse based on a total body weight average.
(§3) Nitrosourea was administered 0.1 ml/10 g of body weight.
(§4) Any intracranially implanted animal that appeared to be moribund was euthanized for humane purposes. Since efficacy studies fall within this category of basic research, experiment termination was based on resultants that were determined to be optimal.
Six to eight week old athymic NCr-nu female mice were used for the intracranially implanted U251 trials. Six to eight week old athymic NCr-nu male mice were used for the intracranially implanted SF-295 trials.
As previously mentioned, this experiment was designed to evaluate the activity of product (Ia) against intracranially U251 and SF-295 glioblastomas in athymic MCr-nu mice. The dosages for product (Ia) were 30, 20 and 13.4 mg/kg/dose. For the two intracranially implanted experiments, cells were prepared at a concentration of 3.33×10^7 cells per ml of media and injected at a volume of 0.03 ml per mouse. The cells were injected into the cerebrum to the right of the midline with a 25 gauge, ⅜ inch, stainless steel needle. Cultured cells were used for the U251 experiment (RP-36). The treatment schedule was q6d×3, iv, beginning on day four, post-implant. A tumor brei, made from solid tumor, was used for the SF-295 experiment (RP-38). The treatment schedule was q4d×3, iv, beginning on day two, post-implant. Nitrosourea was given in each experiment for comparative purposes because of its known activity against CNS tumors. The dosages were 27, 18 and 12 mg/kg/dose and the treatment schedule was the same as the treatment schedule for product (Ia) in each experiment.

[2] = tested on: intracranially implanted human glioblastoma U251; test: Antitumor activity against intracranially implanted U251 glioblastoma in NCr-nu mice (RP-36); format: in vivo; details: for DAYS OF DEATH: individual animals
Procedure: The treatment schedule of the intracranially implanted U251 glioblastoma cells was iv, once daily, every sixth day for three treatments (q6d×3), beginning on day four post-implant. […] For the intracranially implanted studies, the compounds were evaluated based on their ability to increase the life span of the animals. The positive control used for both of these tumor models was nitrosourea.
The oversight committee was the Southern Research Institutional Animal Care and Use Committee; the protocol used was IACUC No. 96-8-50.
as §1, §2, §3, §4
Six to eight week old athymic NCr-nu female mice were used for the intracranially implanted U251 trials.
The cells were injected into the cerebrum to the right of the midline with a 25 gauge, ⅜ inch, stainless steel needle. Cultured cells were used for the U251 experiment (RP-36). The treatment schedule was q6d×3, iv, beginning on day four, post-implant. […] The treatment schedule was q4d×3, iv, beginning on day two, post-implant. Nitrosourea was given in each experiment for comparative purposes because of its known activity against CNS tumors.

[3] = 18.0 mg/kg/dose IV Q4D×3(2), listed as nitrosourea
[4] = 27.0 mg/kg/dose IV Q4D×3(2), listed as nitrosourea
[5] = 18.0 mg/kg/dose IV Q6D×3(4), listed as nitrosourea

## NC(=O)NN=O [Nitrosourea, reference compound]
[1]; 12.0 mg/kg/dose IV Q4D×3(2)
  68 DAY SURV./TOTAL: 0/10
  % ILS: +106%
  MEDIAN DAY OF DEATH: 33.0 days
  DAYS OF DEATH: 33 day (5×) and 40 day and 22 day and 23 day and 26 day (2×)
[1]; 12.0 mg/kg/dose IV Q4D×3(2), listed as nitrosourea
  % ILS: 106%
[1]; 18.0 mg/kg/dose IV Q4D×3(2)
  68 DAY SURV./TOTAL: 1/10
  % ILS: +131%
  MEDIAN DAY OF DEATH: 37.0 days
  DAYS OF DEATH: 40 day and 41 day and 33 day and 34 day (2×) and 35 day and 37 day (3×)
[1]; [3]
  68 DAY SURV./TOTAL: one 68-day survivor out of ten animals
  % ILS: 131%
[1]; 27.0 mg/kg/dose IV Q4D×3(2)
  68 DAY SURV./TOTAL: 2/10
  % ILS: +50%
  MEDIAN DAY OF DEATH: 24.0 days
  DAYS OF DEATH: 64 day and 15 day and 16 day (2×) and 19 day and 29 day and 37 day and 56 day
[1]; [4]
  68 DAY SURV./TOTAL: two 68-day survivors out of ten animals
  % ILS: 50%
[1]; in vivo, iv
  MTD: 27 mg/kg/dose
[2]; 12.0 mg/kg/dose IV Q6D×3(4)
  122-DAY SURV./TOTAL: 0/10
  % ILS: +51%
  MEDIAN DAY OF DEATH: 51.5 days
  DAYS OF DEATH: 69 day (2×) and 80 day and 41 day and 45 day and 49 day (3×) and 54 day and 66 day
[2]; 12.0 mg/kg/dose IV Q6D×3(4), listed as nitrosourea
  % ILS: 51%
[2]; 18.0 mg/kg/dose IV Q6D×3(4)
  122-DAY SURV./TOTAL: 7/10
  % ILS: +205%
  MEDIAN DAY OF DEATH: 104.0 days
  DAYS OF DEATH: 94 day and 104 day (2×)
[2]; [5]
  122-DAY SURV./TOTAL: seven of ten
  % ILS: 205%
[2]; 27.0 mg/kg/dose IV Q6D×3(4)
  122-DAY SURV./TOTAL: 10/10
[2]; 27.0 mg/kg/dose IV Q6D×3(4), listed as nitrosourea
  122-DAY SURV./TOTAL: ten of ten
[2]; iv q6d×3, U251 experiment RP-36
  MTD: 27 mg/kg/dose
